The record followed here is patent publication US10392391B2 (Vertex Pharmaceuticals Incorporated, priority 2012, dated 2019).

Like-named read-outs stand apart in the source and are kept apart here. A value given as a limit tells only on which side of the number the result lay.

The target of test [1] is ATR kinase, in the presence of partner proteins ATRIP, CLK2 and TopBP1 (Homo sapiens (Human), UniProt Q13535). Put plainly: ATR-complex inhibition assay (radioactive-phosphate incorporation). Particulars: Ki(app); 4 nM full-length ATR, 40 nM ATRIP, 40 nM CLK2, 600 nM TopBP1; 10 μM ATP; 25° C. It is filed as biochemical. Here is the method: Compounds were screened for their ability to inhibit ATR kinase, in the presence of partner proteins ATRIP, CLK2 and TopBP1, using a radioactive-phosphate incorporation assay. Assays were carried out in a mixture of 50 mM Tris/HCl (pH 7.5), 10 mM MgCl2 and 1 mM DTT. Final substrate concentrations were 10 μM [g-33P]ATP (3.5 μCi 33P ATP/nmol ATP, Perkin Elmer, Massachusetts, USA) and 800 μM target peptide ([…]) (SEQ ID NO: 1); Isca Biochemicals, Cambridgeshire, UK).
Sequence of ATR kinase, in the presence of partner proteins ATRIP, CLK2 and TopBP1 (Q13535 whole entry): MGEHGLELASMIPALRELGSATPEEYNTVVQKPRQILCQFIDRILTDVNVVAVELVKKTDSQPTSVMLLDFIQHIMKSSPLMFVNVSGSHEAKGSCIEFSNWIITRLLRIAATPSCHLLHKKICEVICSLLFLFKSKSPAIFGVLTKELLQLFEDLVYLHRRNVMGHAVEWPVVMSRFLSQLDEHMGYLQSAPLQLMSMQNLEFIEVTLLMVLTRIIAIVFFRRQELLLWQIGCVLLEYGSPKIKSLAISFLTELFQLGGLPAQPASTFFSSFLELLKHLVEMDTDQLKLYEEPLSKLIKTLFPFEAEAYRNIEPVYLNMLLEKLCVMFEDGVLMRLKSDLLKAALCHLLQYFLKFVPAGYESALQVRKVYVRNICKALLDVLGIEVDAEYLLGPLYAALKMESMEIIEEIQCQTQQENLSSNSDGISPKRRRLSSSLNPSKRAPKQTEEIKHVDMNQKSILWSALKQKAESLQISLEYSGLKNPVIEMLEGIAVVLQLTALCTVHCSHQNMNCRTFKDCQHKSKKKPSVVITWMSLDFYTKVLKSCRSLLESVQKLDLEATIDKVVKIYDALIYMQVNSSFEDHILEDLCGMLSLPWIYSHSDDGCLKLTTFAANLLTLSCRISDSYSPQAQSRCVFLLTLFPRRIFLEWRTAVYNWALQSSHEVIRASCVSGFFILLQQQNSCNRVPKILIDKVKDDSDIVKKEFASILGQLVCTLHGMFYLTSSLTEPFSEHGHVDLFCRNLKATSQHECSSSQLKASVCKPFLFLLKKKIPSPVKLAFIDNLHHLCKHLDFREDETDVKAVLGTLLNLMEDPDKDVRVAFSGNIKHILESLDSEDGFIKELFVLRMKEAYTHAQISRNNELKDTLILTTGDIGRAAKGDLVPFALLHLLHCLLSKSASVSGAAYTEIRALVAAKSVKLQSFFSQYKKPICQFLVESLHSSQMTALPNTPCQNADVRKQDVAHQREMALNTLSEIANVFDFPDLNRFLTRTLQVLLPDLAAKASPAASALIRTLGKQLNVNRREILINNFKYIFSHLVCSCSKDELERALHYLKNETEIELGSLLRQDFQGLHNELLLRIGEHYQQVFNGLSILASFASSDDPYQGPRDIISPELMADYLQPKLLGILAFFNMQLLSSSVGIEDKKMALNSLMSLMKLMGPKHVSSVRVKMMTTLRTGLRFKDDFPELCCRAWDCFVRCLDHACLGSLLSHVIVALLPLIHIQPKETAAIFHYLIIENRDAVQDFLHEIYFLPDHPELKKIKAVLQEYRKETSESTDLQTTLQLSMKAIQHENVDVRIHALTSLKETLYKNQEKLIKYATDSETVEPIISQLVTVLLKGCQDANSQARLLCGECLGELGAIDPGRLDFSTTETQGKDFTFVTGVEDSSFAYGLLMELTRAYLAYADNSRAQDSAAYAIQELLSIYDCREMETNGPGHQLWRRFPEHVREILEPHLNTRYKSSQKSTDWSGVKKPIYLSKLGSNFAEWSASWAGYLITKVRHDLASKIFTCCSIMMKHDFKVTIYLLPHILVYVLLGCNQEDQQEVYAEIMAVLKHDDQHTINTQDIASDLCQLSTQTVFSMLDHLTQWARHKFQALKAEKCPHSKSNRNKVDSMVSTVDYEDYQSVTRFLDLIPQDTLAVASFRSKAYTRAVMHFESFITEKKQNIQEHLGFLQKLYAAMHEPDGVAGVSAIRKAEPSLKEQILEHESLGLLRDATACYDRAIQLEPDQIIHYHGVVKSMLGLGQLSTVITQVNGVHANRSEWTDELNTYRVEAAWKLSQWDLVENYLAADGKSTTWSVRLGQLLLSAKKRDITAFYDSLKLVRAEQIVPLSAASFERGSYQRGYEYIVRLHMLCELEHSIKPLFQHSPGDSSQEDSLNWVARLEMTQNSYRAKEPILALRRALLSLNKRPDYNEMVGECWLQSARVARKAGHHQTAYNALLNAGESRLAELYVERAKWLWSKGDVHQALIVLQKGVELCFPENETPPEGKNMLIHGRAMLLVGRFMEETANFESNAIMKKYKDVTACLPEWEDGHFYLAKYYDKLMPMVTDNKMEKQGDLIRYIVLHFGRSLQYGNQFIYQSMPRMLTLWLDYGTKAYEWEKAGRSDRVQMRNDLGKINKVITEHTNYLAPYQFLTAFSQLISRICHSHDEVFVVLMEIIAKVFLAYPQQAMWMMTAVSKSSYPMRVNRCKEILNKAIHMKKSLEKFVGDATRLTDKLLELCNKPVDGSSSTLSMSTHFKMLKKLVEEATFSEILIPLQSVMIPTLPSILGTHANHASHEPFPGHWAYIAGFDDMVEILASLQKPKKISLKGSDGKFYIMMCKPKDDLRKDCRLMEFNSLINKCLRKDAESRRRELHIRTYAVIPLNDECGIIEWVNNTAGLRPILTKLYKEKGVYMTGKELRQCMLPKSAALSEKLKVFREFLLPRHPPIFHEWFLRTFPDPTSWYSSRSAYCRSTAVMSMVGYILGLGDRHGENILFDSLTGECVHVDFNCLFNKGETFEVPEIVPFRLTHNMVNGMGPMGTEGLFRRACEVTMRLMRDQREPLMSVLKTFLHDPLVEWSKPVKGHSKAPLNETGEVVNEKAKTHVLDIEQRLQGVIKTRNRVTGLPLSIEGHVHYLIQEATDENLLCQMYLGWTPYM
Sequence of ATR kinase, in the presence of partner proteins ATRIP, CLK2 and TopBP1 (Q8WXE1 whole entry partner): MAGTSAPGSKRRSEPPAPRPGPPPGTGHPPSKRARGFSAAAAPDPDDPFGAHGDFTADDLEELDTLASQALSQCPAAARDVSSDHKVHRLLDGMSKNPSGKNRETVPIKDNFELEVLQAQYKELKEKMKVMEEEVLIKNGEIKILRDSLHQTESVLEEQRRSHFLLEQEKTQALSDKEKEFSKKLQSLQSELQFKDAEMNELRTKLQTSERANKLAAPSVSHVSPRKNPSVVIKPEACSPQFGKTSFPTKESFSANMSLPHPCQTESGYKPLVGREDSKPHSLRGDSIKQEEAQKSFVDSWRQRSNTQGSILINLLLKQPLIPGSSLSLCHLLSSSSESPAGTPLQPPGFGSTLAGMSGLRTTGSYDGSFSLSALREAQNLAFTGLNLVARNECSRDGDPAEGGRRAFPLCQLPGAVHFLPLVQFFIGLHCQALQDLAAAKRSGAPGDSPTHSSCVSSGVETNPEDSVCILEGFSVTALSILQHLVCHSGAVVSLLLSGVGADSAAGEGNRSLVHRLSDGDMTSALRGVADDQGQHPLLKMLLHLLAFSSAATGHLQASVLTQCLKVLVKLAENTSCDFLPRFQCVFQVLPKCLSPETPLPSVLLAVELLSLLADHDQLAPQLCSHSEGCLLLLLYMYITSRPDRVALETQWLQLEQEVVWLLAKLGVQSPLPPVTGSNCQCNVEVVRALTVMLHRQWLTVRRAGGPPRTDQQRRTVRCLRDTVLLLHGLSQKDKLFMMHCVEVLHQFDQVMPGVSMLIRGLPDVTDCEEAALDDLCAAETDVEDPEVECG
Assays were carried out at 25° C. in the presence of 4 nM full-length ATR, 40 nM full-length ATRIP, 40 nM full-length CLK2 and 600 nM TopBP1 (A891-S1105). An enzyme stock buffer solution was prepared containing all of the reagents listed above, with the exception of target peptide, ATP and the test compound of interest. This enzyme stock was pre-incubated for 30 minutes at 25° C. 8.5 μL of the enzyme stock solution was placed in a 96-well plate followed by addition of 5 μl of target peptide and 2 μL of DMSO stock containing serial dilutions of the test compound (typically starting from a final concentration of 1.5 μM with 2.5-fold serial dilutions) in duplicate (final DMSO concentration 7%). The plate was pre-incubated for 10 minutes at 25° C. and the reaction initiated by addition of 15 μL [g-33P]ATP (final concentration 10 μM).
The reaction was stopped after […] by the addition of 30 μL 0.3 M phosphoric acid containing 2 mM ATP. A phosphocellulose filter 96-well plate (Multiscreen HTS MAPHNOB50, Merck-Millipore, Massachusetts, USA) was pretreated with 100 μL 0.1 M phosphoric acid prior to the addition of 45 μL of the stopped assay mixture. The plate was washed with 5×200 μL 0.1 M phosphoric acid. After drying, 50 μL Optiphase ‘SuperMix’ liquid scintillation cocktail (Perkin Elmer, Massachusetts, USA) was added to the well prior to scintillation counting (Wallac 1450 Microbeta Liquid Scintillation Counter, Perkin Elmer, Massachusetts, USA).
After removing mean background values for all of the data points, Ki(app) data were calculated from non-linear regression analysis of the initial rate data using the Prism software package (GraphPad Prism version 6.0c for Macintosh, GraphPad Software Inc., San Diego, USA).
Compounds with a Cisplatin sensitization value of <0.02 μM are marked with “+++.” Compounds with a Ki value >0.02 μM but <0.2 μM are marked with “++.” Compounds with a Ki value >0.2 μM but <5 μM are marked with “+.”

For test [2], the target named is ATR kinase (full-length ATR) (Homo sapiens (Human), UniProt Q13535). Briefly: ATR inhibition assay (radioactive-phosphate incorporation). In kind it is biochemical. The essentials:
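Radiometric 33P incorporation by 5 nM full-length ATR into 800 μM target peptide with 10 μM [γ-33P]ATP, in 50 mM Tris/HCl pH 7.5, 10 mM MgCl2, 1 mM DTT, 7% DMSO, 25° C. Compound pre-incubated 10 minutes; reaction stopped after 24 hours, captured on phosphocellulose. Ki(app) from non-linear regression of initial rates.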

The mark [3] stands for this setting: Ki(app), 5 nM full-length ATR, 10 μM ATP, 25° C.

Sequence of ATR kinase (full-length ATR) (Q13535 whole entry): as the sequence (Q13535 whole entry) above

Turning to `CN1CCN(S(=O)(=O)C2CCN(c3c(F)cncc3NC(=O)c3c(N)nn4cc(F)cnc34)CC2)CC1` [I-N-166, 2-amino-6-fluoro-N-(5-fluoro-4-(4-((4-methylpiperazin-1-yl)sulfonyl)piperidin-1-yl)pyridin-3-yl)pyrazolo[1,5-a]pyrimidine-3-carboxamide], the figures for the Ki in test [1] and in test [2] (setting [3]) were less than 20 nM and 10 to 1000 nM, respectively.
For `Nc1nn2cc(F)cnc2c1C(=O)Nc1cnccc1N1CCN(C2COC2)CC1` [I-N-1, 2-amino-6-fluoro-N-(4-(4-(oxetan-3-yl)piperazin-1-yl)pyridin-3-yl)pyrazolo[1,5-a]pyrimidine-3-carboxamide] the same measures were less than 20 nM and 10 to 1000 nM.
On to `CN(C)C1CCN(c2ccncc2NC(=O)c2c(N)nn3cc(Cl)cnc23)CC1` [I-N-37, 2-amino-6-chloro-N-(4-(4-(dimethylamino)piperidin-1-yl)pyridin-3-yl)pyrazolo[1,5-a]pyrimidine-3-carboxamide], for which, in test [2], the Ki fell in the range of 1000 to 5000 nM.
With `CC1(N2CCN(c3ccncc3NC(=O)c3c(N)nn4cc(Cl)cnc34)CC2)COC1` [I-N-25, 2-amino-6-chloro-N-(4-(4-(3-methyloxetan-3-yl)piperazin-1-yl)pyridin-3-yl)pyrazolo[1,5-a]pyrimidine-3-carboxamide], the Ki in test [2] (setting [3]) is 10 to 1000 nM.
Regarding `Cc1ncn(-c2ccncc2NC(=O)c2c(N)nn3cc(F)cnc23)c1C` [I-N-269, 2-amino-N-(4-(4,5-dimethyl-1H-imidazol-1-yl)pyridin-3-yl)-6-fluoropyrazolo[1,5-a]pyrimidine-3-carboxamide], the Ki in test [2] (setting [3]) was in the range of 10 to 1000 nM.
Same read-out and setting: the value for `CNc1cc(N2CCN(C)CC2)c(NC(=O)c2c(N)nn3cc(F)cnc23)cn1` [I-N-129, 2-amino-6-fluoro-N-(6-(methylamino)-4-(4-methylpiperazin-1-yl)pyridin-3-yl)pyrazolo[1,5-a]pyrimidine-3-carboxamide] was 10 to 1000 nM; that for `Nc1nn2cc(Cl)cnc2c1C(=O)Nc1cnccc1OCC(F)(F)F` [I-O-59, 2-amino-6-chloro-N-(4-(2,2,2-trifluoroethoxy)pyridin-3-yl)pyrazolo[1,5-a]pyrimidine-3-carboxamide] was 10 to 1000 nM.
The same measure, in the same setting: in the case of `Nc1nn2cc(F)cnc2c1C(=O)Nc1cncc(F)c1N1CCN2CCOC[C@@H]2C1` [I-N-137, (S)-2-amino-6-fluoro-N-(5-fluoro-4-(hexahydropyrazino[2,1-c][1,4]oxazin-8(1H)-yl)pyridin-3-yl)pyrazolo[1,5-a]pyrimidine-3-carboxamide] it was 10 to 1000 nM; in that of `CN1CC(N2CCN(C(=O)C3CCN(c4c(F)cncc4NC(=O)c4c(N)nn5cc(F)cnc45)CC3)CC2)C1` [I-G-96, 2-amino-6-fluoro-N-(5-fluoro-4-(4-(4-(1-methylazetidin-3-yl)piperazine-1-carbonyl)piperidin-1-yl)pyridin-3-yl)pyrazolo[1,5-a]pyrimidine-3-carboxamide], 10 to 1000 nM.
In the case of `C[C@H]1CN(C(=O)C2CCN(c3c(F)cncc3NC(=O)c3c(N)nn4cc(F)cnc34)CC2)CCN1C` [I-G-47, (S)-2-amino-N-(4-(4-(3,4-dimethylpiperazine-1-carbonyl)piperidin-1-yl)-5-fluoropyridin-3-yl)-6-fluoropyrazolo[1,5-a]pyrimidine-3-carboxamide], in test [2] (setting [3]), the Ki is 10 to 1000 nM.
In the case of `CN1CCC(OC2CCN(c3ccncc3NC(=O)c3c(N)nn4cc(F)cnc34)CC2)CC1` [I-N-154, 2-amino-6-fluoro-N-(4-(4-((1-methylpiperidin-4-yl)oxy)piperidin-1-yl)pyridin-3-yl)pyrazolo[1,5-a]pyrimidine-3-carboxamide], in test [2] (setting [3]), the Ki fell in the range of 10 to 1000 nM.
Consider `Nc1nn2cc(F)cnc2c1C(=O)Nc1cnccc1O[C@H]1CN2CCC1CC2` [I-O-5, (R)-2-amino-6-fluoro-N-(4-(quinuclidin-3-yloxy)pyridin-3-yl)pyrazolo[1,5-a]pyrimidine-3-carboxamide], for which the Ki in test [2] (setting [3]) lay within 10 to 1000 nM.
The same measure, in the same setting: the value for `Nc1nn2cc(F)cnc2c1C(=O)Nc1cnccc1-c1ccccc1` [I-C-5, 2-amino-6-fluoro-N-(4-phenylpyridin-3-yl)pyrazolo[1,5-a]pyrimidine-3-carboxamide] was 10 to 1000 nM; that for `Nc1nn2cc(F)cnc2c1C(=O)Nc1cnccc1OC1CCOC1` (racemic) [I-O-15, (R,S)-2-amino-6-fluoro-N-(4-((tetrahydrofuran-3-yl)oxy)pyridin-3-yl)pyrazolo[1,5-a]pyrimidine-3-carboxamide] was 10 to 1000 nM.
As to `Cc1nc(C(F)(F)F)cn1-c1ccncc1NC(=O)c1c(N)nn2cc(F)cnc12` [I-N-30, 2-amino-6-fluoro-N-(4-(2-methyl-4-(trifluoromethyl)-1H-imidazol-1-yl)pyridin-3-yl)pyrazolo[1,5-a]pyrimidine-3-carboxamide], the Ki in test [2] (setting [3]) was in the range of 10 to 1000 nM.
Consider `Nc1nn2cc(F)cnc2c1C(=O)Nc1cnccc1N1CC(=O)N2CCCC2C1` (stereo not drawn) [I-N-222, 2-amino-6-fluoro-N-(4-(4-oxohexahydropyrrolo[1,2-a]pyrazin-2(1H)-yl)pyridin-3-yl)pyrazolo[1,5-a]pyrimidine-3-carboxamide], for which the Ki in test [2] (setting [3]) lay in the range of 10 to 1000 nM.
On the same count and under the same terms, the value for `CCN1CCN(c2ccncc2NC(=O)c2c(N)nn3cc(Cl)cnc23)CC1` [I-N-51, 2-amino-6-chloro-N-(4-(4-ethylpiperazin-1-yl)pyridin-3-yl)pyrazolo[1,5-a]pyrimidine-3-carboxamide] was 10 to 1000 nM.
Still for that read-out and setting: the value for `Cc1cncc(NC(=O)c2c(N)nn3cc(F)cnc23)c1N1CCN(C2COC2)CC1` [I-N-16, 2-amino-6-fluoro-N-(5-methyl-4-(4-(oxetan-3-yl)piperazin-1-yl)pyridin-3-yl)pyrazolo[1,5-a]pyrimidine-3-carboxamide] was 10 to 1000 nM; that for `CC(C)N1CCN(c2ccncc2NC(=O)c2c(N)nn3cc(F)cnc23)CC1` [I-N-4, 2-amino-6-fluoro-N-(4-(4-isopropylpiperazin-1-yl)pyridin-3-yl)pyrazolo[1,5-a]pyrimidine-3-carboxamide] was 10 to 1000 nM; that for `CN1CCC[C@H]1COc1ccncc1NC(=O)c1c(N)nn2cc(Cl)cnc12` [I-O-50, (S)-2-amino-6-chloro-N-(4-((1-methylpyrrolidin-2-yl)methoxy)pyridin-3-yl)pyrazolo[1,5-a]pyrimidine-3-carboxamide] was 10 to 1000 nM.
`Nc1nn2cc(F)cnc2c1C(=O)Nc1cnccc1C1CCN(C2COC2)CC1` [I-C-10, 2-amino-6-fluoro-N-(4-(1-(oxetan-3-yl)piperidin-4-yl)pyridin-3-yl)pyrazolo[1,5-a]pyrimidine-3-carboxamide]: the Ki in test [2] (setting [3]) was in the range of 10 to 1000 nM.
Still for that read-out and setting: the value for `Nc1nn2cc(Cl)cnc2c1C(=O)Nc1cnccc1O[C@@H]1CCNC1` [I-O-77, (R)-2-amino-6-chloro-N-(4-(pyrrolidin-3-yloxy)pyridin-3-yl)pyrazolo[1,5-a]pyrimidine-3-carboxamide] was 10 to 1000 nM; that for `COCCN1CCC[C@H](Oc2ccncc2NC(=O)c2c(N)nn3cc(Cl)cnc23)C1` [I-O-67, (S)-2-amino-6-chloro-N-(4-((1-(2-methoxyethyl)piperidin-3-yl)oxy)pyridin-3-yl)pyrazolo[1,5-a]pyrimidine-3-carboxamide] was 10 to 1000 nM; that for `Nc1nn2cc(F)cnc2c1C(=O)Nc1cnccc1N1CCC(C(=O)N2CC3(CCO3)C2)CC1` [I-G-90, N-(4-(4-(1-oxa-6-azaspiro[3.3]heptane-6-carbonyl)piperidin-1-yl)pyridin-3-yl)-2-amino-6-fluoropyrazolo[1,5-a]pyrimidine-3-carboxamide] was 10 to 1000 nM.
Take `Nc1nn2cc(F)cnc2c1C(=O)Nc1cncc(F)c1N1CCC(S(=O)(=O)N2CCOCC2)CC1` [I-N-155, 2-amino-6-fluoro-N-(5-fluoro-4-(4-(morpholinosulfonyl)piperidin-1-yl)pyridin-3-yl)pyrazolo[1,5-a]pyrimidine-3-carboxamide]: in test [2] (setting [3]), the Ki was in the range of 10 to 1000 nM.
